Consider 28 compounds from patent US12129221B2, “Difluoro phenyl amide RIP1 inhibitor” (SIRONAX LTD, priority 2018, dated 2024).

One series relates to necrosis. Description: Necrosis inhibitory activity (cell necrosis / cell viability assay). It counts as cell-based. Conditions: Active Pro-drugs; for EC50: read-out: EC50. An excerpt:
Necrosis Inhibitory Activity
Representative IC50 of hRIP1 Kinase Assay Correlated with Our IC50 of Cell Necrosis Assay: […]

The nature of series [1]: Prodrug enhanced metabolic stability: liver microsome (L). It counts as in vitro ADME. More on the design: key: +, Extrapolated. An excerpt: (§1) Prodrug Enhanced Metabolic Stability: Liver Microsome (L), Hepatocyte (H) and PK
In general terms: Liver microsomes are vesicles of endoplasmic reticulum, rich in cytochrome P450 enzymes.

Series [2] in a line: Prodrug enhanced metabolic stability: hepatocyte (H). More on the design: key: +, Extrapolated. It counts as in vitro ADME.
Excerpt: as §1

Series [3] in a line: Prodrug enhanced metabolic stability: PK. It counts as in vivo. More on the design: key: +, Extrapolated.
Excerpt: as §1

A word on the EC50: it is the concentration needed to bring the measured effect to its halfway point.

As to `CCC(C)(C)C(=O)N(Cc1ccccc1)OC(=O)OCC(C)C` [Compound 59, N-benzyl-N-((isobutoxycarbonyl)oxy)-2,2-dimethylbutanamide], the EC50 with necrosis was 44.8 nM. The L entry in series [1] was “+”. Further, the H result in series [2] was “+”. For the same compound, the PK entry in series [3] is recorded as “+”.
For the compound `CCC(C)(C)C(=O)N(Cc1ccccc1)OC(=O)Oc1ccccc1` [Compound 58, N-benzyl-2,2-dimethyl-N-((phenoxycarbonyl)oxy)butanamide], the EC50 in the series on necrosis is 45.1 nM. In series [1], the L result is “+”. Besides, in series [2], the H entry is “+”. Moreover, in series [3], the PK result was “+”.
In the case of `CCC(C)(C)C(=O)N(Cc1ccccc1)OC(=O)CCC(=O)ON(Cc1ccccc1)C(=O)C(C)(C)CC` [Compound 53, N,N′-(succinylbis(oxy))bis(N-benzyl-2,2-dimethylbutanamide)], the EC50 with necrosis is 85.5 nM. In series [1], the L entry is listed as “+”. Besides, the H result in series [2] is given as “+”. For the same compound, the PK entry in series [3] is “+”.
For `CCC(C)(C)C(=O)N(Cc1ccccc1)OP(=O)(OC)OC` [Compound 70, dimethyl ((N-benzyl-2,2-dimethylbutanamido)oxy)phosphonate], in the series on necrosis, the EC50 is 1700 nM. The L result in series [1] is on record as “+”. For the same compound, the H entry in series [2] is reported as “+”. Also, in series [3], the PK entry was “+”.
Take `CCC(C)(C)C(=O)N(Cc1ccccc1)OC(=O)OCCOCCOCCOC(=O)ON(Cc1ccccc1)C(=O)C(C)(C)CC` [Compound 55, N,N′-(2,5,8,11-tetraoxadodecanedioylbis(oxy))bis(N-benzyl-2,2-dimethylbutanamide)]: the EC50 with necrosis amounted to 99.3 nM. Moreover, the L entry in series [1] was “+”. Besides, the H result in series [2] is recorded as “+”. The PK entry in series [3] is listed as “+”.
As to `[2H]CC([2H])C(C)(C)C(=O)N(Cc1cc(F)cc(F)c1)OC(=O)c1cccnc1` (stereo not shown) [Compound 62, N-(3,5-difluorobenzyl)-2,2-dimethyl-N-(nicotinoyloxy)butanamide-3,4-d2], the EC50 with necrosis stood at 45.3 nM. In addition, the L entry in series [1] is “+”. For the same compound, the H entry in series [2] was “+”. Moreover, in series [3], the PK entry is reported as “+”.
`CCC(C)(C)C(=O)N(Cc1ccccc1)OC(=O)CCCC[C@@H]1SC[C@@H]2NC(=O)N[C@@H]21` [Compound 72, N-benzyl-2,2-dimethyl-N-((5-((3aS,4S,6aR)-2-oxohexahydro-1H-thieno[3,4-d]imidazol-4-yl)pentanoyl)oxy)butanamide]: the EC50 in the series with necrosis was found to be 159 nM. Besides, in series [1], the L result is “+”. Also, the H result in series [2] is recorded as “+”. Further, the PK result in series [3] is on record as “+”.
With `CCC(C)(C)C(=O)N(Cc1ccccc1)OC(=O)CC(=O)ON(Cc1ccccc1)C(=O)C(C)(C)CC` [Compound 52, N,N′-(malonylbis(oxy))bis(N-benzyl-2,2-dimethylbutanamide)], in the series with necrosis, the EC50 was 42.2 nM. In addition, in series [1], the L entry was “+”. In series [2], the H entry is reported as “+”. For the same compound, in series [3], the PK entry was “+”.
On to `[2H]CC([2H])C(C)(C)C(=O)N(Cc1cc(F)cc(F)c1)OC(=O)OCCOCCOC` (stereo not shown) [Compound 66, N-(3,5-difluorobenzyl)-N-(((2-(2-methoxyethoxy)ethoxy)carbonyl)oxy)-2,2-dimethylbutanamide-3,4-d2], for which, in the series with necrosis, the EC50 was 46 nM. The L entry in series [1] is “+”. In addition, the H entry in series [2] is reported as “+”. For the same compound, the PK entry in series [3] is on record as “+”.
Turning to `CCC(C)(C)C(=O)N(Cc1ccccc1)OP(=O)(O)O` [Compound 71, ((N-benzyl-2,2-dimethylbutanamido)oxy)phosphonic acid], the EC50 in the series on necrosis amounted to 28.7 nM. Further, in series [1], the L result is reported as “+”. Further, the H result in series [2] is “+”. In addition, the PK result in series [3] is recorded as “+”.
As to `CCC(C)(C)C(=O)N(Cc1ccccc1)OP(=O)(N(C)C)N(C)C` [Compound 68, N-benzyl-N-((bis(dimethylamino)phosphoryl)oxy)-2,2-dimethylbutanamide], the EC50 in the series with necrosis came to 1620 nM. In series [1], the L entry is listed as “+”. Also, the H result in series [2] was “+”. In addition, in series [3], the PK result is “+”.
On to `CCC(C)(C)C(=O)N(Cc1ccccc1)OC(=O)N1CCCCC1` [Compound 56, N-benzyl-2,2-dimethyl-N-((piperidine-1-carbonyl)oxy)butanamide], for which the “EC50(nM)” value with necrosis is given as “weak”. Moreover, the L result in series [1] is “+”. Moreover, the H result in series [2] is “+”. Besides, the PK entry in series [3] is “+”.
As to `CCC(C)(C)C(=O)N(Cc1ccccc1)OC(=O)c1ccccc1` [Compound 51, N-(benzoyloxy)-N-benzyl-2,2-dimethylbutanamide], in the series with necrosis, the EC50 came out at 284 nM. Further, the L entry in series [1] is given as “+”. Also, the H entry in series [2] is reported as “+”. In addition, in series [3], the PK result was “+”.
For the compound `CCC(C)(C)C(=O)N(Cc1ccccc1)OC(=O)CN(C)C` [Compound 82, N-benzyl-N-((dimethylglycyl)oxy)-2,2-dimethylbutanamide], the EC50 in the series on necrosis was 116 nM. Also, the L result in series [1] was “+”. In addition, in series [2], the H entry is recorded as “+”. The PK entry in series [3] is “+”.
For the compound `CCC(C)(C)C(=O)N(Cc1ccccc1)OC(=O)[C@@H](N)CO` [Compound 83, N-((L-seryl)oxy)-N-benzyl-2,2-dimethylbutanamide], the EC50 with necrosis is 898 nM. In series [1], the L result was “+”. In addition, in series [2], the H entry is listed as “+”. In addition, in series [3], the PK result is reported as “+”.
`CCOC(=O)ON(Cc1cc(F)cc(F)c1)C(=O)C(C)(C)CC` [Compound 87, N-(3,5-difluorobenzyl)-N-((ethoxycarbonyl)oxy)-2,2-dimethylbutanamide]: the EC50 with necrosis stood at 67.8 nM. For the same compound, the L result in series [1] was “+”. In addition, in series [2], the H result is reported as “+”. The PK entry in series [3] is “+”.
As to `CCC(C)(C)C(=O)N(Cc1ccccc1)OCOC(=O)C(C)(C)C` [Compound 63, ((N-benzyl-2,2-dimethylbutanamido)oxy)methyl pivalate], the EC50 with necrosis amounted to 62.9 nM. In addition, the L result in series [1] is on record as “+”. The H result in series [2] was “+”. Moreover, the PK result in series [3] is reported as “+”.
As for `CCC(C)(C)C(=O)N(Cc1ccccc1)OC(=O)[C@@H](NC(=O)OC(C)(C)C)C(C)C` [Compound 79, tert-butyl (S)-(1-((N-benzyl-2,2-dimethylbutanamido)oxy)-3-methyl-1-oxobutan-2-yl)carbamate], the EC50 in the series with necrosis is 1430 nM. Further, in series [1], the L entry was “+”. The H result in series [2] was “+”. Moreover, the PK entry in series [3] is “+”.
For `CCC(C)(C)C(=O)N(Cc1ccccc1)OC(=O)C(C)(C)C` [Compound 77, N-benzyl-2,2-dimethyl-N-(pivaloyloxy)butanamide], the EC50 with necrosis was determined as 6830 nM. The L entry in series [1] was “+”. Moreover, the H entry in series [2] is “+”. Also, in series [3], the PK entry is listed as “+”.
For the compound `[2H]CC([2H])C(C)(C)C(=O)N(Cc1cc(F)cc(F)c1)OC(=O)OCCOCCOCCOC` (stereo not shown) [Compound 67, N-((2,5,8,11-tetraoxadodecanoyl)oxy)-N-(3,5-difluorobenzyl)-2,2-dimethylbutanamide-3,4-d2], in the series with necrosis, the EC50 stood at 58.5 nM. Besides, the L result in series [1] was “+”. Moreover, in series [2], the H entry is listed as “+”. Moreover, the PK result in series [3] is on record as “+”.
As to `CCC(C)(C)C(=O)N(Cc1ccccc1)OCc1ccc(O)cc1` [Compound 73, N-benzyl-N-((4-hydroxybenzyl)oxy)-2,2-dimethylbutanamide], in the series on necrosis, the EC50 was found to be 489 nM. In series [1], the L entry is “+”. In series [2], the H result is recorded as “+”. Further, the PK result in series [3] is “+”.
Consider `CCC(C)(C)C(=O)N(Cc1ccccc1)OC(=O)N1CCC(N2CCCCC2)CC1` [Compound 57, N-(([1,4′-bipiperidine]-1′-carbonyl)oxy)-N-benzyl-2,2-dimethylbutanamide], for which the “EC50(nM)” value in the series on necrosis is “weak”. Further, the L entry in series [1] was “+”. Further, the H entry in series [2] is “+”. In series [3], the PK entry is “+”.
In the case of `CCC(C)(C)C(=O)N(Cc1ccccc1)OC(=O)[C@@H](N)C(C)C` [Compound 80, N-((L-valyl)oxy)-N-benzyl-2,2-dimethylbutanamide], the EC50 in the series with necrosis worked out at 24.2 nM. Besides, in series [1], the L entry was “+”. Further, the H result in series [2] is “+”. Further, the PK entry in series [3] is “+”.
For the compound `[2H]CC([2H])C(C)(C)C(=O)N(Cc1cc(F)cc(F)c1)OC(=O)OCCOC` (stereo not shown) [Compound 65, N-(3,5-difluorobenzyl)-N-(((2-methoxyethoxy)carbonyl)oxy)-2,2-dimethylbutanamide-3,4-d2], the EC50 with necrosis was 37.2 nM. In series [1], the L result is “+”. For the same compound, the H entry in series [2] was “+”. The PK result in series [3] is reported as “+”.
For the compound `[2H]CC([2H])C(C)(C)C(=O)N(Cc1cc(F)cc(F)c1)OC(=O)OCC` (stereo not shown) [Compound 61, N-(3,5-difluorobenzyl)-N-((ethoxycarbonyl)oxy)-2,2-dimethylbutanamide-3,4-d2], the EC50 with necrosis worked out at 128 nM. For the same compound, the L entry in series [1] was “+”. The H result in series [2] is “+”. Moreover, the PK result in series [3] was “+”.
In the case of `CCC(C)(C)C(=O)N(Cc1ccccc1)OC(=O)c1cccnc1` [Compound 60, N-benzyl-2,2-dimethyl-N-(nicotinoyloxy)butanamide], in the series with necrosis, the EC50 is 83.5 nM. The L result in series [1] was “+”. Also, in series [2], the H entry was “+”. Moreover, in series [3], the PK entry was “+”.
For `[2H]CC([2H])C(C)(C)C(=O)N(Cc1cc(F)cc(F)c1)OCOC(=O)C(C)(C)C` (stereo not shown) [Compound 64, ((N-(3,5-difluorobenzyl)-2,2-dimethylbutanamido-3,4-d2)oxy)methyl pivalate], in the series on necrosis, the EC50 was 91.4 nM. In addition, the L result in series [1] is recorded as “+”. The H entry in series [2] is on record as “+”. Besides, in series [3], the PK entry is listed as “+”.
Consider `CCC(C)(C)C(=O)N(Cc1ccccc1)OC(=O)[C@@H]1CCCN1C(=O)OC(C)(C)C` [Compound 81, tert-butyl (S)-2-(((N-benzyl-2,2-dimethylbutanamido)oxy)carbonyl)pyrrolidine-1-carboxylate], for which, in the series on necrosis, the EC50 came out at 3250 nM. The L entry in series [1] is “+”. In addition, in series [2], the H result was “+”. In addition, the PK entry in series [3] is recorded as “+”.
